Measurements taken from article PMC4411898, “Impact of kinesin Eg5 inhibition by 3,4-dihydropyrimidin-2(1H)-one derivatives on various breast cancer cell features” (BMC Cancer, 2015).

Tests used:
[1] = test system: Fibroblasts (primary culture from healthy human dental pulp); settings: fibroblasts, 72 h treatment, MTT
Description: MCF-7 cell line and primary culture of connective tissue cells were provided by the Laboratory of Morphology, University of Brasília (Brasília, BR). MDA-MB-231 cells were purchased from Rio de Janeiro Cell Bank (RJCB - Rio de Janeiro, BR). Cell line characterization and authentication was conducted by RJCB using short tandem repeat profiling. Primary culture cells were taken from healthy human dental pulp predominantly consisting of fibroblasts and were used as normal control cells. MCF-7 cells and fibroblasts were grown in complete DMEM and maintained at 37°C with 5% CO2. MDA-MB-231 cells were grown in Leibovitz L15 medium at 37°C without CO2. Culture media were supplemented with 10% fetal bovine serum and 25 μg/mL of gentamicin.
Cytotoxicity was determined using 3-(4,5-dimethylthiazol-2-yl)-2,5-diphenylterazolium bromide (MTT) according to the manufacturer’s instructions. Absorbance readings were measured by a spectrophotometer. Cell viability was normalized to control (vehicle only).

[2] = target: T1, Kinesin Eg5 (Homo sapiens, UniProt P52732); assay: Kinesin inhibition assay (Kinesin ELIPA); type: biochemical; settings: compound at its IC50, 30 min, 360 nm
T1 sequence (P52732 1-1056): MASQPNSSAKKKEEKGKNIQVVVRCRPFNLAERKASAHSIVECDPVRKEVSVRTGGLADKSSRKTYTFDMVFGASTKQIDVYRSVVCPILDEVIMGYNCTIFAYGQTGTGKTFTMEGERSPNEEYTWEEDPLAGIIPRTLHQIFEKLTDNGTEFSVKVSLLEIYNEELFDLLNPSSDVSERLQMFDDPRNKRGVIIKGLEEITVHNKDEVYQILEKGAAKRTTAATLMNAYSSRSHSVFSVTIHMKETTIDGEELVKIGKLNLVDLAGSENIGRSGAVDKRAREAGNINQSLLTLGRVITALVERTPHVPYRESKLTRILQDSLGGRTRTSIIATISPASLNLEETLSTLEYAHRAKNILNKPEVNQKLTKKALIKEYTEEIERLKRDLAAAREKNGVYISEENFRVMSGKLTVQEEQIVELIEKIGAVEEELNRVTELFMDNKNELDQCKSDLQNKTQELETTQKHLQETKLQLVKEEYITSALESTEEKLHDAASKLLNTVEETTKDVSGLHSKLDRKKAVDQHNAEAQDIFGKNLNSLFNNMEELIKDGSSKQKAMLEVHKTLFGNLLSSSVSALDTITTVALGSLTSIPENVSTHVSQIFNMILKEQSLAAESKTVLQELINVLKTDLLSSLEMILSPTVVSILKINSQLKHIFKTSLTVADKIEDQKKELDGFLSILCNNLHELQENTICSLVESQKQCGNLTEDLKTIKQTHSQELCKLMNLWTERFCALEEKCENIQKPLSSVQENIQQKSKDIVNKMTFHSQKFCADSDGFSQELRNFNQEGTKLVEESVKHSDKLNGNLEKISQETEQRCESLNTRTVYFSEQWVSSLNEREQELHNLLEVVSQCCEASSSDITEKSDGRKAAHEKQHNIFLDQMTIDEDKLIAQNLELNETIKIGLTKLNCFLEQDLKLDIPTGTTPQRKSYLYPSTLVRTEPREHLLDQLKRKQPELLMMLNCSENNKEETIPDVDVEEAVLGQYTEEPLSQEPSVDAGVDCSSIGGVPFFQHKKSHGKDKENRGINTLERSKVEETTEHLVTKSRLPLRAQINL
Description: Kinesin inhibition assays were performed using Kinesin ELIPA (Enzyme Linked Inorganic Phosphate Assay). Reactions were conducted in 96-well plates according to the manufacturer’s recommendations (Kinesin ELIPA Biochem Kit – BK060).
Reactions were measured in spectrophotometer set in kinetic mode and an absorbance wavelength of 360 nm.

[3] = test system: MCF-7 cells; assay: α-tubulin immunostaining, spindle formation; type: cell-based, human; settings: for Monoastral Spindle (%) 24 h / Bipolar Spindle (%) 24 h / Mitotic spindle / microtubule organization (α-tubulin immunostaining): MCF-7, 24 h; for Monoastral Spindle (%) 24 h / Bipolar Spindle (%) 24 h / Bipolar Spindle (%) 48 h / Monoastral Spindle (%) 48 h: n = 300 dividing cells; for Monoastral Spindle (%) 24 h / Mitotic spindle / microtubule organization (α-tubulin immunostaining): 4m 1.0 mM, 4bt 0.8 mM, 4p 0.4 mM, 4bc 1.0 mM, 4x 0.8 mM; for Monoastral Spindle (%) 24 h: monastrol 0.1 mM; for Bipolar Spindle (%) 24 h / Bipolar Spindle (%) 48 h / Monoastral Spindle (%) 48 h: concentrations as E14; for Bipolar Spindle (%) 48 h / Monoastral Spindle (%) 48 h: MCF-7, 48 h
Description: Aliquots of 7 × 10^4 MCF-7 cells were seeded onto 12 mm round glass coverslips placed in the base of each well of a 24-well plate. After adhesion, cells were treated for 24 and 48 h with the pre-selected compounds at their maximum non-cytotoxic concentrations to normal cells or incubated with culture medium only for the same duration (negative control). Cells were washed with PBS, fixed with 3.7% formaldehyde, permeabilized with 0.1% Triton X-100 and blocked in PBS supplemented with 1% skimmed milk, 2.5% bovine serum albumin (BSA) and 8% fetal bovine serum (FBS) at room temperature. Cells were incubated overnight with mouse anti-α-tubulin antibody (1:500) at 4°C, followed by incubation with a secondary antibody: Alexa Fluor 488 rabbit anti-mouse IgG (1:400), for 1 hour at 37°C. Nuclei were stained with 300 nM DAPI. The coverslips were mounted with ProLong Gold Antifade and specimens observed under a laser scanning confocal microscope.
Table S1. Quantification of monopolar spindles occurred as a result of treatment with DHPM derivatives. MCF-7 control cells or cells treated for 24 or 48 h with 4m (1 mM), […]
antibody. The percentage of dividing cells showing presence of monoastral and bipolar spinles formation determined (n = 300).
Experimental Group Monoastral Spindle (%) Bipolar Spindle (%)

[4] = test system: MDA-MB-231 cells; assay: Apoptosis and necrosis assay (Annexin-V/PI flow cytometry), MDA-MB-231; type: cell-based, human; settings: 72 h; 4m 1.0 mM, 4bt 0.8 mM, 4p 0.4 mM, 4bc 1.0 mM, 4x 0.8 mM
Description: For proliferation assays, cells were treated with IC50 concentrations of each compound. Adherent and floating cells were harvested at the same tube and pelleted by centrifugation at 300 g for 5 minutes and stained. Data acquisition of these two fractions put together was performed on a FACSCalibur flow cytometer using CellQuest software and analysed using the FloJo Software. Untreated control cells and DHPMs-treated for 72 h cell samples were stained with Annexin-V-FITC or Annexin-V-Alexa Fluor® 680 and propidium iodide according to the manufacturer’s instructions.

[5] = test system: MCF-7 cells; assay: Morphological alterations under inverted light microscope, MCF-7; type: cell-based, human; settings: 72 h, maximum non-cytotoxic concentration to normal cells
Description: Figure 2 DHPM derivatives cause severe morphological alterations on breast cancer cells. MCF-7 and MDA-MB-231 cells were treated with the maximum non-cytotoxic concentration to normal cells for 72 h and morphological alterations analyzed under an inverted light microscope. Cells with elongated morphology, adherent to the surface and normal size are shown by arrows. Cells with size reduction, absence of focal adhesion points, rounded morphology and detached from the surface where they had been seeded are shown by arrowheads.

SMILES | Maximum non-cytotoxic concentration to normal cells [1] [mM] | Inhibition of kinesin Eg5 activity in vitro (in words) [2] | Monoastral Spindle (%) 24 h [3] [%] | Bipolar Spindle (%) 24 h [3] [%] | Mitotic spindle / microtubule organization (α-tubulin immunostaining) [3] | Bipolar Spindle (%) 48 h [3] [%] | Monoastral Spindle (%) 48 h [3] [%] | Cell death by apoptosis, % of MDA-MB-231 cell population [4] | Morphological alterations, MCF-7 [5]
CC(=O)C1=C(C)NC(=O)NC1c1ccccc1[N+](=O)[O-] (stereo not drawn) [Compound 4x] | 0.8 | not statistically significant | 50.80 | 49.20 | caused monoastral spindle formation | 12.01 | 87.99 | less pronounced manner | no significant alterations
CCOC(=O)C1=C(C)NC(=S)NC1c1ccccc1O (stereo not drawn) [Compound 4p] | 0.4 | not statistically significant | 0 | 0 | disruption of the microtubules | 0 | 0 | less pronounced manner | produced the same results
